Our source for the DC50 and Y values is patent US11306101B2 (Celgene Corporation, priority 2019, dated 2022).

As usually defined, the DC50 is the concentration at which degradation of the target reaches its halfway point. Read a low DC50 as degradation at low concentration.

The test deals with T1, CK1α (Homo sapiens, UniProt P48729+Q96SW2).
T1 construct: expressed in transfected cells
Description: CK1α ePL degradation assay in MDS-L cells. Format: cell-based. The settings on record: MDS-L cells expressing ePL-tagged CK1α; for DC50: concentration giving 50% CK1α degradation vs DMSO control; for Y: lowest measured CK1α level normalized to DMSO control. The essentials:
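Degradation efficiency is reported as Y value, the minimum CK1α level (percent of DMSO control) across doses. Readout used InCELL Hunter luminescent detection after MDS-L cell exposure at 37° C for stated times, doses 10 μM down to 0.0005 μM in 3-fold steps.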

Each structure is given as a SMILES string. Where only a bound is given, the exact number is not on record here.

T1 sequence (P48729 whole entry): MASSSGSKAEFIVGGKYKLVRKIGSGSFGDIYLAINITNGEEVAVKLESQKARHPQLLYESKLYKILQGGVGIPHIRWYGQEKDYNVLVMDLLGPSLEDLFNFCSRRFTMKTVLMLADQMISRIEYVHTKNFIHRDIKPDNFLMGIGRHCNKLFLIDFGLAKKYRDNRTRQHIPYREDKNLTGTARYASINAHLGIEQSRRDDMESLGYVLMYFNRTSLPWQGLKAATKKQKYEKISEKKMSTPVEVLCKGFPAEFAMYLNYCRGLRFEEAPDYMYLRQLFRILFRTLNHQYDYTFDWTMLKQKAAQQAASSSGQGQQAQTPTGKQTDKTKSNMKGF
T1 sequence (Q96SW2 whole entry): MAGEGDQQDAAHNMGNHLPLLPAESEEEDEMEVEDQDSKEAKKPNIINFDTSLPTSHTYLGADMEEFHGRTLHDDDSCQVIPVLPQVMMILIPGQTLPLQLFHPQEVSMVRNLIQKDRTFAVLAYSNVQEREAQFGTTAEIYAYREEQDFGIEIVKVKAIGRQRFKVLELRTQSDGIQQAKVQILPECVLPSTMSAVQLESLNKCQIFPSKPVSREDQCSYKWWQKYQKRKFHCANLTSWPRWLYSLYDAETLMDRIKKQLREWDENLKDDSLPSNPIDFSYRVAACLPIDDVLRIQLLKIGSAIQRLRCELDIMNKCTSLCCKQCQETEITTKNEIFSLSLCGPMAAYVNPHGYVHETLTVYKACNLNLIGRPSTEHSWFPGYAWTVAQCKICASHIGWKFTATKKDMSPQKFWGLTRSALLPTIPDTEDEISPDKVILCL
T1 sequence (Q16531 whole entry partner): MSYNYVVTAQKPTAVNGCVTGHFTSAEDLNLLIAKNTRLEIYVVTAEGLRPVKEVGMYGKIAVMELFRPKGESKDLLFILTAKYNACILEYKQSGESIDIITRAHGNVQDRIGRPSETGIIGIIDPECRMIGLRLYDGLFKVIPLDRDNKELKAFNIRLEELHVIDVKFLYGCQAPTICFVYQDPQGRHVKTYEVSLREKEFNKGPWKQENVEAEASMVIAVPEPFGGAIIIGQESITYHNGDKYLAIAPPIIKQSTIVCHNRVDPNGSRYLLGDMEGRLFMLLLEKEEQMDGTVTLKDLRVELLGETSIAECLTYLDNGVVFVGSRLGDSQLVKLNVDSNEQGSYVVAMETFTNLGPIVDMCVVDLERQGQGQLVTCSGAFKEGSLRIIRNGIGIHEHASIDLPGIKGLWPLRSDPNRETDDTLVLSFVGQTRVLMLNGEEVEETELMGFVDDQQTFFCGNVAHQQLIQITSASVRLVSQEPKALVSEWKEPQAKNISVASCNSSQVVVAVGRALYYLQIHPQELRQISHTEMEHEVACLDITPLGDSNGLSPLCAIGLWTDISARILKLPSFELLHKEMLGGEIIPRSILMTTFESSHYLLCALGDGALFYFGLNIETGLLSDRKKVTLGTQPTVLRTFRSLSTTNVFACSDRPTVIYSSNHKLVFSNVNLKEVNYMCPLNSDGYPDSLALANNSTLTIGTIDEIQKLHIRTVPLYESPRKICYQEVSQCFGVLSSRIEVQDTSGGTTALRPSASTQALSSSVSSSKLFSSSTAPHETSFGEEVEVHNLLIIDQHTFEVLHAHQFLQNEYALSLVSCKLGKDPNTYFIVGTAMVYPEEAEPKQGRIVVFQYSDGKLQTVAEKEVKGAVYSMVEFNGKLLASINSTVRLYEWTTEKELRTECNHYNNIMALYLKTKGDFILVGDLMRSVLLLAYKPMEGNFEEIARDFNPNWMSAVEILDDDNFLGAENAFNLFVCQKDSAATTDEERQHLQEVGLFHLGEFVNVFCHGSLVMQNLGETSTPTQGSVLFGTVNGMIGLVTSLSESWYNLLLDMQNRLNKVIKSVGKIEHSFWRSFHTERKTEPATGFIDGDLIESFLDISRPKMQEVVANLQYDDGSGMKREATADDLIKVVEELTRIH

As to `O=C1CCC(N2Cc3c(ccc(C(=O)N[C@H](c4ccccc4C(F)(F)F)C(F)(F)F)c3F)C2=O)C(=O)N1` (stereo partly drawn) [Example 98, 2-(2,6-dioxopiperidin-3-yl)-4-fluoro-1-oxo-N-((R)-2,2,2-trifluoro-1-(2-(trifluoromethyl)phenyl)ethyl)isoindoline-5-carboxamide], the DC50 is less than 0.1 µM and the Y entry is listed as “* (a Y value (shown as *) of 0<Y≤20%)”.
Consider `O=C1CCC(N2Cc3cc(C(=O)N[C@H](c4ccccc4F)C(F)(F)F)c(F)cc3C2=O)C(=O)N1` (stereo partly drawn) [Example 99, 2-(2,6-dioxopiperidin-3-yl)-6-fluoro-1-oxo-N-((R)-2,2,2-trifluoro-1-(2-fluorophenyl)ethyl)isoindoline-5-carboxamide], for which the DC50 was 0.1 to 0.5 µM and the Y result was “** (a Y value (shown as**) of 20%<Y≤35%)”.
Taken in the same sequence, the figures for `O=C1CCC(N2Cc3c(ccc(C(=O)N[C@H](c4ccccc4F)C(F)(F)F)c3F)C2=O)C(=O)N1` (stereo partly drawn) [Example 100, 2-(2,6-dioxopiperidin-3-yl)-4-fluoro-1-oxo-N-((R)-2,2,2-trifluoro-1-(2-fluorophenyl)ethyl)isoindoline-5-carboxamide] were 0.1 to 0.5 µM and “* (a Y value (shown as *) of 0<Y≤20%)”.
Taken in the same sequence, the figures for `O=C1CCC(N2Cc3cc(C(=O)N[C@H](c4ccc(O)cc4)C(F)(F)F)ccc3C2=O)C(=O)N1` (stereo partly drawn) [Example 101, 2-(2,6-dioxopiperidin-3-yl)-1-oxo-N-((R)-2,2,2-trifluoro-1-(4-hydroxyphenyl)ethyl)isoindoline-5-carboxamide] were less than 0.1 µM and “* (a Y value (shown as *) of 0<Y≤20%)”.
For `CC(C)Oc1cccc([C@@H](NC(=O)c2ccc3c(c2)CN(C2CCC(=O)NC2=O)C3=O)C(F)(F)F)c1` (stereo partly drawn) [Example 102, 2-(2,6-dioxopiperidin-3-yl)-1-oxo-N-((R)-2,2,2-trifluoro-1-(3-isopropoxyphenyl)ethyl)isoindoline-5-carboxamide], in that order: less than 0.1 µM and “** (a Y value (shown as**) of 20%<Y≤35%)”.
As to `O=C1CC[C@H](N2Cc3cc(C(=O)N[C@H](c4ccc(F)cc4)C(F)(F)F)ccc3C2=O)C(=O)N1` [Example 103, 2-((S)-2,6-dioxopiperidin-3-yl)-1-oxo-N-((R)-2,2,2-trifluoro-1-(4-fluorophenyl)ethyl)isoindoline-5-carboxamide], the DC50 is less than 0.1 µM and the Y result is on record as “* (a Y value (shown as *) of 0<Y≤20%)”.
With `O=C1CC[C@@H](N2Cc3cc(C(=O)N[C@H](c4ccc(F)cc4)C(F)(F)F)ccc3C2=O)C(=O)N1` [Example 104, 2-((R)-2,6-dioxopiperidin-3-yl)-1-oxo-N-((R)-2,2,2-trifluoro-1-(4-fluorophenyl)ethyl)isoindoline-5-carboxamide], the DC50 is less than 0.1 µM and the Y result is on record as “* (a Y value (shown as *) of 0<Y≤20%)”.
As for `O=C1CCC(N2Cc3c(ccc(C(=O)N[C@H](c4ccc(F)cc4F)C(F)(F)F)c3F)C2=O)C(=O)N1` (stereo partly drawn) [Example 105, N-((R)-1-(2,4-difluorophenyl)-2,2,2-trifluoroethyl)-2-(2,6-dioxopiperidin-3-yl)-4-fluoro-1-oxoisoindoline-5-carboxamide], the DC50 is less than 0.1 µM and the Y entry is on record as “* (a Y value (shown as *) of 0<Y≤20%)”.
For the molecule `O=C1CCC(N2Cc3cc(C(=O)N[C@H](c4ncccc4Cl)C(F)(F)F)ccc3C2=O)C(=O)N1` (stereo partly drawn) [Example 106, N-((R)-1-(3-chloropyridin-2-yl)-2,2,2-trifluoroethyl)-2-(2,6-dioxopiperidin-3-yl)-1-oxoisoindoline-5-carboxamide], the DC50 is less than 0.1 µM and the Y result was “* (a Y value (shown as *) of 0<Y≤20%)”.
For `O=C1CCC(N2Cc3c(ccc(C(=O)N[C@H](c4cccc(Cl)c4)C(F)(F)F)c3F)C2=O)C(=O)N1` (stereo partly drawn) [Example 107, N-((R)-1-(3-chlorophenyl)-2,2,2-trifluoroethyl)-2-(2,6-dioxopiperidin-3-yl)-4-fluoro-1-oxoisoindoline-5-carboxamide], the DC50 was 0.1 to 0.5 µM and the Y entry is listed as “** (a Y value (shown as**) of 20%<Y≤35%)”.
For `O=C1CCC(N2Cc3c(ccc(C(=O)N[C@H](c4cccc(F)c4)C(F)(F)F)c3F)C2=O)C(=O)N1` (stereo partly drawn) [Example 108, 2-(2,6-dioxopiperidin-3-yl)-4-fluoro-1-oxo-N-((R)-2,2,2-trifluoro-1-(3-fluorophenyl)ethyl)isoindoline-5-carboxamide], in that order: 0.1 to 0.5 µM and “** (a Y value (shown as**) of 20%<Y≤35%)”.
For `O=C1CCC(N2Cc3cc(C(=O)N[C@H](c4ccc(Cl)cn4)C(F)(F)F)ccc3C2=O)C(=O)N1` (stereo partly drawn) [Example 109, N-((R)-1-(5-chloropyridin-2-yl)-2,2,2-trifluoroethyl)-2-(2,6-dioxopiperidin-3-yl)-1-oxoisoindoline-5-carboxamide], in that order: less than 0.1 µM and “* (a Y value (shown as *) of 0<Y≤20%)”.
Taken in the same sequence, the figures for `O=C1CCC(N2Cc3cc(C(=O)N[C@H](c4ncccc4F)C(F)(F)F)ccc3C2=O)C(=O)N1` (stereo partly drawn) [Example 110, 2-(2,6-dioxopiperidin-3-yl)-1-oxo-N-((R)-2,2,2-trifluoro-1-(3-fluoropyridin-2-yl)ethyl)isoindoline-5-carboxamide] were less than 0.1 µM and “* (a Y value (shown as *) of 0<Y≤20%)”.
Turning to `O=C1CCC(N2Cc3cc(C(=O)N[C@H](c4ccc(F)cc4)C(F)F)ccc3C2=O)C(=O)N1` (stereo partly drawn) [Example 111, N-((R)-2,2-difluoro-1-(4-fluorophenyl)ethyl)-2-(2,6-dioxopiperidin-3-yl)-1-oxoisoindoline-5-carboxamide], the DC50 is less than 0.1 µM and the Y entry is “* (a Y value (shown as *) of 0<Y≤20%)”.
Taken in the same sequence, the figures for `O=C1CCC(N2Cc3c(ccc(C(=O)N[C@H](c4ccc(F)cc4)C(F)F)c3F)C2=O)C(=O)N1` (stereo partly drawn) [Example 112, N-((R)-2,2-difluoro-1-(4-fluorophenyl)ethyl)-2-(2,6-dioxopiperidin-3-yl)-4-fluoro-1-oxoisoindoline-5-carboxamide] were less than 0.1 µM and “* (a Y value (shown as *) of 0<Y≤20%)”.
For the molecule `O=C1CCC(N2Cc3c(ccc(C(=O)N[C@H](c4ccc(F)c(F)c4)C(F)(F)F)c3F)C2=O)C(=O)N1` (stereo partly drawn) [Example 113, N-((R)-1-(3,4-difluorophenyl)-2,2,2-trifluoroethyl)-2-(2,6-dioxopiperidin-3-yl)-4-fluoro-1-oxoisoindoline-5-carboxamide], the DC50 was in the range of 0.1 to 0.5 µM and the Y result was “** (a Y value (shown as**) of 20%<Y≤35%)”.
For `O=C1CCC(N2Cc3c(ccc(C(=O)N[C@H](c4ccccc4Cl)C(F)(F)F)c3F)C2=O)C(=O)N1` (stereo partly drawn) [Example 114, N-((R)-1-(2-chlorophenyl)-2,2,2-trifluoroethyl)-2-(2,6-dioxopiperidin-3-yl)-4-fluoro-1-oxoisoindoline-5-carboxamide], in that order: less than 0.1 µM and “* (a Y value (shown as *) of 0<Y≤20%)”.
For `O=C1CCC(N2Cc3c(ccc(C(=O)N[C@H](c4ccc(F)cn4)C(F)(F)F)c3F)C2=O)C(=O)N1` (stereo partly drawn) [Example 115, 2-(2,6-dioxopiperidin-3-yl)-4-fluoro-1-oxo-N-((R)-2,2,2-trifluoro-1-(5-fluoropyridin-2-yl)ethyl)isoindoline-5-carboxamide], the DC50 fell in the range of 0.1 to 0.5 µM and the Y result was “** (a Y value (shown as**) of 20%<Y≤35%)”.
Taken in the same sequence, the figures for `O=C1CCC(N2Cc3cc(C(=O)N[C@H](c4ncccc4C(F)(F)F)C(F)(F)F)ccc3C2=O)C(=O)N1` (stereo partly drawn) [Example 116, 2-(2,6-dioxopiperidin-3-yl)-1-oxo-N-((R)-2,2,2-trifluoro-1-(3-(trifluoromethyl)pyridin-2-yl)ethyl)isoindoline-5-carboxamide] were 0.1 to 0.5 µM and “** (a Y value (shown as**) of 20%<Y≤35%)”.
For `O=C1CCC(N2Cc3c(ccc(C(=O)N[C@H](c4ncccc4F)C(F)(F)F)c3F)C2=O)C(=O)N1` (stereo partly drawn) [Example 117, 2-(2,6-dioxopiperidin-3-yl)-4-fluoro-1-oxo-N-((R)-2,2,2-trifluoro-1-(3-fluoropyridin-2-yl)ethyl)isoindoline-5-carboxamide], in that order: 0.1 to 0.5 µM and “** (a Y value (shown as**) of 20%<Y≤35%)”.
As to `CC[C@@H](NC(=O)c1ccc2c(c1)CN(C1CCC(=O)NC1=O)C2=O)c1ccccc1` (some centres unmarked) [Example 118], the DC50 was in the range of 0.1 to 0.5 µM and the Y result was “** (a Y value (shown as**) of 20%<Y≤35%)”.
On to `O=C1CCC(N2Cc3cc(C(=O)N[C@H](c4cc(C(F)(F)F)ccn4)C(F)(F)F)ccc3C2=O)C(=O)N1` (stereo partly drawn) [Example 119, 2-(2,6-dioxopiperidin-3-yl)-1-oxo-N-((R)-2,2,2-trifluoro-1-(4-(trifluoromethyl)pyridin-2-yl)ethyl)isoindoline-5-carboxamide], for which the DC50 is less than 0.1 µM and the Y result was “** (a Y value (shown as**) of 20%<Y≤35%)”.
For `O=C1CCC(N2Cc3c(ccc(C(=O)N[C@H](c4cccc(OC(F)(F)F)c4)C(F)(F)F)c3F)C2=O)C(=O)N1` (stereo partly drawn) [Example 120, 2-(2,6-dioxopiperidin-3-yl)-4-fluoro-1-oxo-N-((R)-2,2,2-trifluoro-1-(3-(trifluoromethoxy)phenyl)ethyl)isoindoline-5-carboxamide], in that order: 0.1 to 0.5 µM and “** (a Y value (shown as**) of 20%<Y≤35%)”.
With `O=C1CCC(N2Cc3c(ccc(C(=O)N[C@H](C4CCCCC4)C(F)(F)F)c3F)C2=O)C(=O)N1` (stereo partly drawn) [Example 121, N-((R)-1-cyclohexyl-2,2,2-trifluoroethyl)-2-(2,6-dioxopiperidin-3-yl)-4-fluoro-1-oxoisoindoline-5-carboxamide], the DC50 is less than 0.1 µM and the Y entry was “* (a Y value (shown as *) of 0<Y≤20%)”.
For `O=C1CCC(N2Cc3cc(C(=O)N[C@H](c4cccc(OC5CC5)c4)C(F)(F)F)ccc3C2=O)C(=O)N1` (stereo partly drawn) [Example 122, N-((R)-1-(3-cyclopropoxyphenyl)-2,2,2-trifluoroethyl)-2-(2,6-dioxopiperidin-3-yl)-1-oxoisoindoline-5-carboxamide], in that order: less than 0.1 µM and “* (a Y value (shown as *) of 0<Y≤20%)”.
